Legend:
[1] = tested on: bedstraw; test: Test B pre/postemergence bedstraw; assay type: in vivo, Galium aparine
In short: (§1)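 Response is a visual 0-to-10 score relative to untreated plants, where 0 means no effect and 10 means complete control, taken twelve to sixteen days after application. Treatments went onto soil at planting and onto foliage of 1- to 4-leaf plants, using a surfactant-containing non-phytotoxic solvent.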

[2] = tested on: blackgrass; test: Test B pre/postemergence blackgrass; assay type: in vivo, Alopecurus myosuroides
In short: as §1

[3] = tested on: surinam grass; test: Test B pre/postemergence surinam grass; assay type: in vivo, Brachiaria decumbens
In short: as §1

[4] = tested on: cocklebur; test: Test B pre/postemergence cocklebur; assay type: in vivo, Xanthium strumarium
In short: as §1

[5] = tested on: corn; test: Test B pre/postemergence corn; assay type: in vivo, Zea mays
In short: as §1

[6] = tested on: morningglory; test: Test B pre/postemergence morningglory; assay type: in vivo, Ipomoea hederacea
In short: as §1

[7] = tested on: pigweed; test: Test B pre/postemergence pigweed; assay type: in vivo, Amaranthus retroflexus
In short: as §1

[8] = tested on: rape; test: Test B pre/postemergence rape; assay type: in vivo, Brassica napus
In short: as §1

[9] = tested on: soybean; test: Test B pre/postemergence soybean; assay type: in vivo, Glycine max
In short: as §1

[10] = tested on: sugar beet; test: Test B pre/postemergence sugar beet; assay type: in vivo, Beta vulgaris
In short: as §1

[11] = tested on: velvetleaf; test: Test B pre/postemergence velvetleaf; assay type: in vivo, Abutilon theophrasti
In short: as §1

[12] = tested on: wild oat; test: Test B pre/postemergence wild oat; assay type: in vivo, Avena fatua
In short: as §1

[13] = tested on: purple nutsedge; test: Test B pre/postemergence purple nutsedge; assay type: in vivo, Cyperus rotundus
In short: as §1

[14] = tested on: rice; test: Test B flood test rice; assay type: in vivo, Oryza sativa
In short: (§2)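 Each value is a visual injury score relative to controls, with 10 meaning complete control and 0 no effect. Evaluation took place twelve to sixteen days after the 2-leaf-stage plants were treated and kept in the greenhouse.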

[15] = tested on: smallflower flatsedge; test: Test B flood test smallflower flatsedge; assay type: in vivo, Cyperus difformis
In short: as §2

[16] = tested on: bamyardgrass; test: Test B flood test barnyardgrass; assay type: in vivo, Echinochloa crus-galli
In short: as §2

[17] = Preemergence, Rate 62 g/ha, scale of 0 to 10 where 0 is no effect and 10 is complete control
[18] = Preemergence, Rate 250 g/ha, scale of 0 to 10 where 0 is no effect and 10 is complete control
[19] = Preemergence, Rate 500 g/ha, scale of 0 to 10 where 0 is no effect and 10 is complete control
[20] = Rate 62 g/ha, Postemergence, scale 0 to 10 (0 no effect, 10 complete control)
[21] = Rate 125 g/ha, Postemergence, scale of 0 to 10 where 0 is no effect and 10 is complete control
[22] = Rate 125 g/ha, Preemergence, scale of 0 to 10 where 0 is no effect and 10 is complete control
[23] = Rate 250 g/ha, Postemergence, scale of 0 to 10 where 0 is no effect and 10 is complete control
[24] = Rate 500 g/ha, Postemergence, scale 0 to 10, 0 no effect, 10 complete control
[25] = Rate 62 g/ha, headed Pre-emergence (flood test species), scale 0 to 10 (0 no effect, 10 complete control)
[26] = Rate 125 g/ha, Pre-emergence, flood test species, scale 0 to 10 where 0 is no effect and 10 is complete control
[27] = Rate 250 g/ha, Pre-emergence, flood-test species, scale 0 to 10, 0 is no effect, 10 is complete control
[28] = Rate 500 g/ha, Pre-emergence, flood test species, scale 0 to 10 (0 no effect, 10 complete control)

For `CC(C)N(C(=O)n1oc(=O)n(C2CCCC2)c1=O)c1ccc(F)cc1F` [Compound 284], the “Bedstraw plant response rating” value [1, 17] was 0, the “Bedstraw plant response rating” value [1, 18] was 8 and the “Plant response rating, Bedstraw” value [1, 19] was 8. The “Bedstraw plant response rating” value [1, 20] was 2, the “Bedstraw plant response rating” value [1, 21] was 5 and the “Bedstraw plant response rating” value [1, 22] was 8. For the same molecule, the “Plant response rating, Bedstraw” value [1, 23] was 6, the “Bedstraw plant response rating” value [1, 24] was 9 and the “Blackgrass plant response rating” value [2, 17] was 0. For the same molecule, the “Blackgrass plant response rating” value [2, 18] was 8, the “Plant response rating, Blackgrass” value [2, 19] was 10 and the “Blackgrass plant response rating” value [2, 20] was 3. For the same molecule, the “Blackgrass plant response rating” value [2, 21] was 5, the “Blackgrass plant response rating” value [2, 22] was 4 and the “Plant response rating, Blackgrass” value [2, 23] was 7. The “Blackgrass plant response rating” value [2, 24] was 8, the “B. signalgrass plant response rating” value [3, 17] was 5 and the “B. signalgrass plant response rating” value [3, 18] was 5. For the same molecule, the “Plant response rating, B. signalgrass” value [3, 19] was 8, the “B. signalgrass plant response rating” value [3, 20] was 0 and the “B. signalgrass plant response rating” value [3, 21] was 0. The “B. signalgrass plant response rating” value [3, 22] was 5, the “Plant response rating, B. signalgrass” value [3, 23] was 0 and the “B. signalgrass plant response rating” value [3, 24] was 1. For the same molecule, the “Cocklebur plant response rating” value [4, 17] was 0, the “Plant response rating, Cocklebur” value [4, 19] was 0 and the “Cocklebur plant response rating” value [4, 20] was 0. For the same molecule, the “Cocklebur plant response rating” value [4, 21] was 2, the “Plant response rating, Cocklebur” value [4, 23] was 2 and the “Cocklebur plant response rating” value [4, 24] was 2. The “Corn plant response rating” value [5, 17] was 0, the “Corn plant response rating” value [5, 18] was 0 and the “Plant response rating, Corn” value [5, 19] was 0. For the same molecule, the “Corn plant response rating” value [5, 20] was 0, the “Corn plant response rating” value [5, 21] was 0 and the “Corn plant response rating” value [5, 22] was 0. The “Plant response rating, Corn” value [5, 23] was 0, the “Corn plant response rating” value [5, 24] was 0 and the “Morningglory plant response rating” value [6, 17] was 0. The “Morningglory plant response rating” value [6, 18] was 1, the “Plant response rating, Morningglory” value [6, 19] was 2 and the “Morningglory plant response rating” value [6, 20] was 7. The “Morningglory plant response rating” value [6, 21] was 7, the “Morningglory plant response rating” value [6, 22] was 1 and the “Plant response rating, Morningglory” value [6, 23] was 7. The “Redroot pigweed plant response rating” value [7, 17] was 5, the “Redroot pigweed plant response rating” value [7, 18] was 7 and the “Plant response rating, Redroot pigweed” value [7, 19] was 8. The “Redroot pigweed plant response rating” value [7, 20] was 3, the “Redroot pigweed plant response rating” value [7, 21] was 4 and the “Redroot pigweed plant response rating” value [7, 22] was 6. The “Plant response rating, Redroot pigweed” value [7, 23] was 6, the “Rape plant response rating” value [8, 17] was 2 and the “Rape plant response rating” value [8, 18] was 7. The “Plant response rating, Rape” value [8, 19] was 7, the “Rape plant response rating” value [8, 20] was 1 and the “Rape plant response rating” value [8, 21] was 3. The “Rape plant response rating” value [8, 22] was 2, the “Plant response rating, Rape” value [8, 23] was 4 and the “Soybean plant response rating” value [9, 17] was 0. The “Soybean plant response rating” value [9, 18] was 0, the “Plant response rating, Soybean” value [9, 19] was 3 and the “Soybean plant response rating” value [9, 20] was 4. The “Soybean plant response rating” value [9, 21] was 4, the “Soybean plant response rating” value [9, 22] was 0 and the “Plant response rating, Soybean” value [9, 23] was 4. The “Sugarbeets plant response rating” value [10, 17] was 2, the “Sugarbeets plant response rating” value [10, 18] was 6 and the “Plant response rating, Sugarbeets” value [10, 19] was 6. For the same molecule, the “Sugarbeets plant response rating” value [10, 20] was 1, the “Sugarbeets plant response rating” value [10, 21] was 3 and the “Sugarbeets plant response rating” value [10, 22] was 5. For the same molecule, the “Plant response rating, Sugarbeets” value [10, 23] was 5, the “Velvetleaf plant response rating” value [11, 17] was 0 and the “Velvetleaf plant response rating” value [11, 18] was 0. The “Plant response rating, Velvetleaf” value [11, 19] was 7, the “Velvetleaf plant response rating” value [11, 20] was 0 and the “Velvetleaf plant response rating” value [11, 21] was 0. The “Velvetleaf plant response rating” value [11, 22] was 0, the “Plant response rating, Velvetleaf” value [11, 23] was 2 and the “Wild oats plant response rating” value [12, 17] was 0. The “Wild oats plant response rating” value [12, 18] was 3, the “Plant response rating, Wild oats” value [12, 19] was 5 and the “Wild oats plant response rating” value [12, 20] was 0. The “Wild oats plant response rating” value [12, 21] was 0, the “Plant response rating, Wild oats” value [12, 23] was 0 and the “Nutsedge plant response rating” value [13, 17] was 0. The “Nutsedge plant response rating” value [13, 18] was 0, the “Plant response rating, Nutsedge” value [13, 19] was 0 and the “Nutsedge plant response rating” value [13, 20] was 0. For the same molecule, the “Nutsedge plant response rating” value [13, 21] was 0, the “Nutsedge plant response rating” value [13, 22] was 0 and the “Plant response rating, Nutsedge” value [13, 23] was 0. The “Rice plant response rating” value [14, 25] was 0, the “Rice plant response rating” value [14, 26] was 0 and the “Rice plant response rating” value [14, 27] was 0. For the same molecule, the “Rice plant response rating” value [14, 28] was 0, the “S. Flatsedge plant response rating” value [15, 25] was 0 and the “S. Flatsedge plant response rating” value [15, 26] was 0. The “S. Flatsedge plant response rating” value [15, 27] was 0, the “S. Flatsedge plant response rating” value [15, 28] was 0 and the “Barnyardgrass plant response rating” value [16, 25] was 0. For the same molecule, the “Barnyardgrass plant response rating” value [16, 26] was 1, the “Barnyardgrass plant response rating” value [16, 27] was 4 and the “Barnyardgrass plant response rating” value [16, 28] was 9.

From patent US6737383B1, “Herbicidal oxadiazolidines” (priority 1999, dated 2004)
